One test has as its system FGFR3 enzyme. As to the kind of experiment: FGFR Enzymatic Assay (FRET peptide phosphorylation), FGFR3. The conditions noted are these: IC50 ratio showing FGFR3 selectivity; Table 2A, pre-incubated for 4 hours. It counts as biochemical. As to the method: (§1) The inhibitor potency of the exemplified compounds was measured in an enzyme assay that measures peptide phosphorylation using FRET measurements to detect product formation. Inhibitors were serially diluted in DMSO and a volume of 0.5 μL was transferred to the wells of a 384-well plate.
(§2) GraphPad prism3 was used to analyze the data.

Another test concerns the target FGFR4 (Homo sapiens (Human), UniProt P22455). As to the kind of experiment: FGFR Enzymatic Assay (FRET peptide phosphorylation), FGFR4. It counts as biochemical. As to the method: as §1
The enzymes were purchased from Millipore or Invitrogen.
as §2

Where [1] appears, read: IC50 ratio showing FGFR4 selectivity, Table 2, pre-incubated for 4 hours.
The mark [2] stands for this setting: ratio of IC50 data showing FGFR4 selectivity, Table 4, pre-incubated for 5 to 10 minutes.

Data on one molecule can be found in patent publication US11173162B2, “Bicyclic heterocycles as FGFR4 inhibitors” (Incyte Corporation, priority 2015, dated 2021).

Each structure is given as a SMILES string. Some results are limits rather than exact numbers.

FGFR4, sequence (P22455 22-802): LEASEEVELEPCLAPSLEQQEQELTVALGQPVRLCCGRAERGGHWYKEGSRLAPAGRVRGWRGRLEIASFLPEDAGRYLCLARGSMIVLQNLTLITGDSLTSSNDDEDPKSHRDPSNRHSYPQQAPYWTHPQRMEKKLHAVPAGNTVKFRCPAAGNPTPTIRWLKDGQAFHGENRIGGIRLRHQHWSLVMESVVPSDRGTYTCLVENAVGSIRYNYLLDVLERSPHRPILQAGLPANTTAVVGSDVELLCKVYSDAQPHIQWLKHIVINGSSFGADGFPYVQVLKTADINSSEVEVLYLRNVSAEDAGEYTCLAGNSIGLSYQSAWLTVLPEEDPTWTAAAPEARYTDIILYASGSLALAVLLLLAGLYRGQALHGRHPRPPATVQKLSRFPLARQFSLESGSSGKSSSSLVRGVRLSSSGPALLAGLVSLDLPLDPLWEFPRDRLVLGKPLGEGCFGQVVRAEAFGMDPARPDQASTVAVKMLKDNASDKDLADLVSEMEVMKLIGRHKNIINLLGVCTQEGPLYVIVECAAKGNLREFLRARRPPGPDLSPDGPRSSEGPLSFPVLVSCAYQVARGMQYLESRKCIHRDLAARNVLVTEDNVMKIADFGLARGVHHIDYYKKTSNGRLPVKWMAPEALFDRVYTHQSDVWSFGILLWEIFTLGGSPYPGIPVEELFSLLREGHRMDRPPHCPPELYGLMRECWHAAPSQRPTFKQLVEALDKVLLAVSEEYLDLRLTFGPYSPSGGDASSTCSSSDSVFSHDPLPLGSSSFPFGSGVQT

Turning to `COc1cc(OC)c(F)c(N2Cc3cnc(-c4cncc(CN5CCOCC5)c4)cc3C3(CC3)C2=O)c1F` [Example 16, 2′-(2,6-difluoro-3,5-dimethoxyphenyl)-6′-(5-(morpholinomethyl)pyridin-3-yl)-1′H-spiro[cyclopropane-1,4′-[2,7]naphthyridin]-3′(2′H)-one], the FGFR1/FGFR3 in the test with FGFR3 enzyme is reported as over 1. Further, on FGFR4 (setting [1]), the FGFR1/FGFR4 is over 50, the FGFR2/FGFR4 was over 25 and the FGFR3/FGFR4 is over 10. Besides, on FGFR4 (setting [2]), the FGFR1/FGFR4 is given as over 25, the FGFR2/FGFR4 is recorded as over 10 and the FGFR3/FGFR4 is recorded as over 10.
